Legend:
Carboplatin = compound: C1CC(C1)(C(=O)[O-])C(=O)[O-].N.N.[Pt+2] [Carboplatin]; settings: max 10 µM
Method in brief: (§1)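 In 1536-well plates, cancer cell lines in 7.5 μl DMEM/F12 or RPMI with 10% FBS spent 24 hours at 37°C and 5% CO2 and were then dosed for 72 hours with final DMSO typically 0.2%. Viability was read by CellTiter-Glo 2.0 luminescence and scaled between blank-well and DMSO-well means. The single-agent IC50 was fitted from dose responses using a logistic curve in a non-linear mixed effects model, and that logistic curve had two parameters.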

AZD5363 = compound: C1CN(CCC1(C(=O)N[C@@H](CCO)C2=CC=C(C=C2)Cl)N)C3=NC=NC4=C3C=CN4 [AZD5363]; settings: max 10 µM
Method in brief: as §1

AZD1775 = compound: C=CCn1c(=O)c2cnc(Nc3ccc(N4CCN(C)CC4)cc3)nc2n1-c1cccc(C(C)(C)O)n1 [AZD1775]; settings: max 3 µM
Method in brief: as §1

Trametinib = compound: CC(=O)Nc1cccc(-n2c(=O)n(C3CC3)c(=O)c3c(Nc4ccc(I)cc4F)n(C)c(=O)c(C)c32)c1 [Trametinib]; settings: max 1 µM
Method in brief: as §1

Paclitaxel = compound: CC(=O)O[C@H]1C(=O)[C@@]2(C)[C@H]([C@H](OC(=O)c3ccccc3)[C@]3(O)C[C@H](OC(=O)[C@H](O)[C@@H](NC(=O)c4ccccc4)c4ccccc4)C(C)=C1C3(C)C)[C@]1(OC(C)=O)CO[C@@H]1C[C@@H]2O [Paclitaxel]; settings: max 3 µM
Method in brief: as §1

Palbociclib = compound: CC(=O)c1c(C)c2cnc(Nc3ccc(N4CCNCC4)cn3)nc2n(C2CCCC2)c1=O [Palbociclib]; settings: max 10 µM
Method in brief: as §1

AZD1390 = compound: CC(C)n1c(=O)n(C)c2cnc3cc(F)c(-c4ccc(OCCCN5CCCCC5)nc4)cc3c21 [AZD1390]; settings: max 0.3 µM
Method in brief: as §1

Venetoclax = compound: CC1(C)CCC(CN2CCN(c3ccc(C(=O)NS(=O)(=O)c4ccc(NCC5CCOCC5)c([N+](=O)[O-])c4)c(Oc4cnc5[nH]ccc5c4)c3)CC2)=C(c2ccc(Cl)cc2)C1 [Venetoclax]; settings: max 1 µM
Method in brief: as §1

Dasatinib = compound: CC1=C(C(=CC=C1)Cl)NC(=O)C2=CN=C(S2)NC3=CC(=NC(=N3)C)N4CCN(CC4)CCO [Dasatinib]; settings: max 2 µM
Method in brief: as §1

SG3199 = compound: CC1=CN2[C@@H](C1)C=NC3=CC(=C(C=C3C2=O)OC)OCCCCCOC4=C(C=C5C(=C4)N=C[C@@H]6CC(=CN6C5=O)C)OC [SG3199]; settings: max 0.001 µM
Method in brief: as §1

AZD2811 = compound: CCN(CCO)CCCOc1ccc2c(Nc3cc(CC(=O)Nc4cccc(F)c4)[nH]n3)ncnc2c1 [AZD2811]; settings: max 1 µM
Method in brief: as §1

SN-38 = compound: CCc1c2c(nc3ccc(O)cc13)-c1cc3c(c(=O)n1C2)COC(=O)[C@]3(O)CC [SN-38]; settings: max 0.3 µM
Method in brief: as §1

AZD0156 = compound: CN(C)CCCOc1ccc(-c2ccc3ncc4c(c3c2)n(C2CCOCC2)c(=O)n4C)cn1 [AZD0156]; settings: max 3 µM
Method in brief: as §1

AZD4320 = compound: CN(CC[C@H](CSC1=CC=CC=C1)NC2=C(C=C(C=C2)S(=O)(=O)NC(=O)C3=CC=C(C=C3)N4CCC(CC4)[C@H](C5=CC=CC=C5C6=CC=C(C=C6)Cl)O)S(=O)(=O)C(F)(F)F)CCO [AZD4320]; settings: max 1 µM
Method in brief: as §1

Alisertib = compound: COc1cc(Nc2ncc3c(n2)-c2ccc(Cl)cc2C(c2c(F)cccc2OC)=NC3)ccc1C(=O)O [Alisertib]; settings: max 10 µM
Method in brief: as §1

Etoposide = compound: COc1cc([C@@H]2c3cc4c(cc3[C@@H](O[C@@H]3O[C@@H]5CO[C@@H](C)O[C@H]5[C@H](O)[C@H]3O)[C@H]3COC(=O)[C@H]23)OCO4)cc(OC)c1O [Etoposide]; settings: max 10 µM
Method in brief: as §1

Gefitinib = compound: COc1cc2ncnc(Nc3ccc(F)c(Cl)c3)c2cc1OCCCN1CCOCC1 [Gefitinib]; settings: max 10 µM
Method in brief: as §1

Prexasertib = compound: COc1cccc(OCCCN)c1-c1cc(Nc2cnc(C#N)cn2)n[nH]1 [Prexasertib]; settings: max 1 µM
Method in brief: as §1

Doxorubicin = compound: COc1cccc2c1C(=O)c1c(O)c3c(c(O)c1C2=O)C[C@@](O)(C(=O)CO)C[C@@H]3O[C@H]1C[C@H](N)[C@H](O)[C@H](C)O1 [Doxorubicin]; settings: max 1 µM
Method in brief: as §1

AZD5153 = compound: COc1nnc2ccc(N3CCC(c4ccc(OCCN5CCN(C)C(=O)[C@H]5C)cc4)CC3)nn12 [AZD5153]; settings: max 1 µM
Method in brief: as §1

Lapatinib = compound: CS(=O)(=O)CCNCc1ccc(-c2ccc3ncnc(Nc4ccc(OCc5cccc(F)c5)c(Cl)c4)c3c2)o1 [Lapatinib]; settings: max 10 µM
Method in brief: as §1

AZD8186 = compound: C[C@@H](Nc1cc(F)cc(F)c1)c1cc(C(=O)N(C)C)cc2c(=O)cc(N3CCOCC3)oc12 [AZD8186]; settings: max 10 µM
Method in brief: as §1

Crizotinib = compound: C[C@@H](Oc1cc(-c2cnn(C3CCNCC3)c2)cnc1N)c1c(Cl)ccc(F)c1Cl [Crizotinib]; settings: max 10 µM
Method in brief: as §1

Savolitinib = compound: C[C@@H](c1ccc2nccn2c1)n1nnc2ncc(-c3cnn(C)c3)nc21 [Savolitinib]; settings: max 1 µM
Method in brief: as §1

AZD6738 = compound: C[C@@H]1COCCN1C2=NC(=NC(=C2)C3(CC3)[S@](=N)(=O)C)C4=C5C=CNC5=NC=C4 [AZD6738]; settings: max 10 µM
Method in brief: as §1

AZD5991 = compound: Cc1c2c(nn1C)CSCc1cc(n(C)n1)CSc1cc(c3ccccc3c1)OCCCc1c(C(=O)O)n(C)c3c-2c(Cl)ccc13 [AZD5991]; settings: max 1 µM
Method in brief: as §1

AZD7648 = compound: Cc1cc2ncnn2cc1Nc1ncc2c(n1)n(C1CCOCC1)c(=O)n2C [AZD7648]; settings: max 10 µM
Method in brief: as §1

Taselisib = compound: Cc1nc(-c2cn3c(n2)-c2ccc(-c4cnn(C(C)(C)C(N)=O)c4)cc2OCC3)n(C(C)C)n1 [Taselisib]; settings: max 10 µM
Method in brief: as §1

Selumetinib = compound: Cn1cnc2c(F)c(Nc3ccc(Br)cc3Cl)c(C(=O)NOCCO)cc21 [Selumetinib]; settings: max 10 µM
Method in brief: as §1

SRA737 = compound: N#Cc1cnc(Nc2cc(NC[C@H]3CNCCO3)c(C(F)(F)F)cn2)cn1 [SRA737]; settings: max 10 µM
Method in brief: as §1

MK-2206 = compound: NC1(c2ccc(-c3nc4ccn5c(=O)[nH]nc5c4cc3-c3ccccc3)cc2)CCC1 [MK-2206]; settings: max 10 µM
Method in brief: as §1

Gemcitabine = compound: Nc1ccn([C@@H]2O[C@H](CO)[C@@H](O)C2(F)F)c(=O)n1 [Gemcitabine]; settings: max 0.3 µM
Method in brief: as §1

[1] = compound: O=C(Nc1ccc2[nH]nc(-c3ccncc3)c2c1)[C@@H]1CCN(CC(=O)N2CCN(c3ccc(-c4ncccn4)cc3)CC2)C1; settings: max 5 µM
Method in brief: as §1

Olaparib = compound: O=C(c1cc(Cc2n[nH]c(=O)c3ccccc23)ccc1F)N1CCN(C(=O)C2CC2)CC1 [Olaparib]; settings: max 10 µM
Method in brief: as §1

5-Fluorouracil = compound: O=c1[nH]cc(F)c(=O)[nH]1 [5-Fluorouracil]; settings: max 20 µM
Method in brief: as §1

Cell Line | IC50, cell viability 72 h (Carboplatin) [nM] | IC50, cell viability 72 h (AZD5363) [nM] | IC50, cell viability 72 h (AZD1775) [nM] | IC50, cell viability 72 h (Trametinib) [nM] | IC50, cell viability 72 h (Paclitaxel) [nM] | IC50, cell viability 72 h (Palbociclib) [nM] | IC50, cell viability 72 h (AZD1390) [nM] | IC50, cell viability 72 h (Venetoclax) [nM] | IC50, cell viability 72 h (Dasatinib) [nM] | IC50, cell viability 72 h (SG3199) [nM] | IC50, cell viability 72 h (AZD2811) [nM] | IC50, cell viability 72 h (SN-38) [nM] | IC50, cell viability 72 h (AZD0156) [nM] | IC50, cell viability 72 h (AZD4320) [nM] | IC50, cell viability 72 h (Alisertib) [nM] | IC50, cell viability 72 h (Etoposide) [nM] | IC50, cell viability 72 h (Gefitinib) [nM] | IC50, cell viability 72 h (Prexasertib) [nM] | IC50, cell viability 72 h (Doxorubicin) [nM] | IC50, cell viability 72 h (AZD5153) [nM] | IC50, cell viability 72 h (Lapatinib) [nM] | IC50, cell viability 72 h (AZD8186) [nM] | IC50, cell viability 72 h (Crizotinib) [nM] | IC50, cell viability 72 h (Savolitinib) [nM] | IC50, cell viability 72 h (AZD6738) [nM] | IC50, cell viability 72 h (AZD5991) [nM] | IC50, cell viability 72 h (AZD7648) [nM] | IC50, cell viability 72 h (Taselisib) [nM] | IC50, cell viability 72 h (Selumetinib) [nM] | IC50, cell viability 72 h (SRA737) [nM] | IC50, cell viability 72 h (MK-2206) [nM] | IC50, cell viability 72 h (Gemcitabine) [nM] | IC50, cell viability 72 h [1] [nM] | IC50, cell viability 72 h (Olaparib) [nM] | IC50, cell viability 72 h (5-Fluorouracil) [nM]
GCIY (Gastric Carcinoma) | > 10000 | > 10000 | > 3000 | 271 | 549 | > 10000 | > 300 | > 1000 | 589 | > 1 | > 1000 | 90 | > 3000 | > 1000 | 1210 | > 10000 | > 10000 | 41.9 | > 1000 | > 1000 | > 10000 | > 10000 | > 10000 | > 1000 | 3030 | > 1000 | > 10000 | 895 | > 10000 | > 10000 | > 10000 | > 300 | > 5000 | > 10000 | > 20000
KNS-62 (Squamous Cell Lung Carcinoma) | > 10000 | 6590 | > 3000 | 276 | 273 | > 10000 | > 300 | > 1000 | > 2000 | > 1 | > 1000 | 53.3 | > 3000 | > 1000 | > 10000 | > 10000 | > 10000 | 342 | > 1000 | 632 | > 10000 | > 10000 | > 10000 | > 1000 | > 10000 | > 1000 | > 10000 | > 10000 | > 10000 | > 10000 | > 10000 | > 300 | 4140 | > 10000 | > 20000
L-363 (Plasma Cell Myeloma) | > 10000 | > 10000 | 231 | > 1000 | 5.31 | > 10000 | > 300 | 694 | > 2000 | > 1 | > 1000 | > 300 | > 3000 | > 1000 | > 10000 | > 10000 | > 10000 | 5.32 | > 1000 | 381 | > 10000 | > 10000 | > 10000 | > 1000 | 2770 | 134 | > 10000 | 9120 | > 10000 | 1220 | 8500 | 258 | > 5000 | > 10000 | > 20000
